Measurements taken from PubChem BioAssay (NCI).
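Cells were grown in 96-well plates and exposed to each compound for 48 hours at five concentrations; endpoints were interpolated linearly between bracketing concentrations, or set to the highest concentration if not reached. TGI: concentration producing complete growth inhibition.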

System: SK-MEL-2 melanoma
Assay: NCI anticancer screen, dose series, 48 h

Row | SMILES | TGI [µM]
1 | N#CC1=C(N)OC2=C(CCCc3ccccc32)C1c1ccc([N+](=O)[O-])cc1 (centres undefined) | 40.8
2 | O=C(Nc1sccc1S(=O)(=O)c1ccc(Cl)cc1)c1ccc(Cl)cc1 | > 100

System: PC-3 prostate
Assay: NCI anticancer screen, dose series, 48 h

Row | SMILES | TGI [µM]
3 | C=CC[C@@]1(OC(C)=O)C(=O)C(=O)OC1C1COC(C)(C)O1 (some centres undefined) | 40.2
4 | N#CC1=C(N)OC2=C(CCCc3ccccc32)C1c1ccc([N+](=O)[O-])cc1 (centres undefined) | 38.8
5 | O=C(Nc1sccc1S(=O)(=O)c1ccc(Cl)cc1)c1ccc(Cl)cc1 | 90.4

System: T-47D breast
Assay: NCI anticancer screen, dose series, 48 h

Row | SMILES | TGI [µM]
6 | C=CC[C@@]1(OC(C)=O)C(=O)C(=O)OC1C1COC(C)(C)O1 (some centres undefined) | 37.5
7 | N#CC1=C(N)OC2=C(CCCc3ccccc32)C1c1ccc([N+](=O)[O-])cc1 (centres undefined) | 26.1
8 | O=C(Nc1sccc1S(=O)(=O)c1ccc(Cl)cc1)c1ccc(Cl)cc1 | > 100

System: MCF7 breast
Assay: NCI anticancer screen, dose series, 48 h

Row | SMILES | TGI [µM]
9 | C=CC[C@@]1(OC(C)=O)C(=O)C(=O)OC1C1COC(C)(C)O1 (some centres undefined) | 33.6
10 | N#CC1=C(N)OC2=C(CCCc3ccccc32)C1c1ccc([N+](=O)[O-])cc1 (centres undefined) | 36.4
11 | O=C(Nc1sccc1S(=O)(=O)c1ccc(Cl)cc1)c1ccc(Cl)cc1 | > 100

System: COLO 205 colon
Assay: NCI anticancer screen, dose series, 48 h

Row | SMILES | TGI [µM]
12 | C=CC[C@@]1(OC(C)=O)C(=O)C(=O)OC1C1COC(C)(C)O1 (some centres undefined) | 27.2
13 | N#CC1=C(N)OC2=C(CCCc3ccccc32)C1c1ccc([N+](=O)[O-])cc1 (centres undefined) | 31.7
14 | O=C(Nc1sccc1S(=O)(=O)c1ccc(Cl)cc1)c1ccc(Cl)cc1 | > 100

System: IGROV1 ovarian
Assay: NCI anticancer screen, dose series, 48 h

Row | SMILES | TGI [µM]
15 | C=CC[C@@]1(OC(C)=O)C(=O)C(=O)OC1C1COC(C)(C)O1 (some centres undefined) | 34
16 | N#CC1=C(N)OC2=C(CCCc3ccccc32)C1c1ccc([N+](=O)[O-])cc1 (centres undefined) | 54
17 | O=C(Nc1sccc1S(=O)(=O)c1ccc(Cl)cc1)c1ccc(Cl)cc1 | > 100

System: SF-295 CNS
Assay: NCI anticancer screen, dose series, 48 h

Row | SMILES | TGI [µM]
18 | C=CC[C@@]1(OC(C)=O)C(=O)C(=O)OC1C1COC(C)(C)O1 (some centres undefined) | > 100
19 | N#CC1=C(N)OC2=C(CCCc3ccccc32)C1c1ccc([N+](=O)[O-])cc1 (centres undefined) | 36.1
20 | O=C(Nc1sccc1S(=O)(=O)c1ccc(Cl)cc1)c1ccc(Cl)cc1 | > 100

System: HT29 colon
Assay: NCI anticancer screen, dose series, 48 h

Row | SMILES | TGI [µM]
21 | C=CC[C@@]1(OC(C)=O)C(=O)C(=O)OC1C1COC(C)(C)O1 (some centres undefined) | 36.4
22 | N#CC1=C(N)OC2=C(CCCc3ccccc32)C1c1ccc([N+](=O)[O-])cc1 (centres undefined) | 28.2
23 | O=C(Nc1sccc1S(=O)(=O)c1ccc(Cl)cc1)c1ccc(Cl)cc1 | > 100

System: SK-MEL-28 melanoma
Assay: NCI anticancer screen, dose series, 48 h

Row | SMILES | TGI [µM]
24 | C=CC[C@@]1(OC(C)=O)C(=O)C(=O)OC1C1COC(C)(C)O1 (some centres undefined) | 33.5
25 | N#CC1=C(N)OC2=C(CCCc3ccccc32)C1c1ccc([N+](=O)[O-])cc1 (centres undefined) | 35.2
26 | O=C(Nc1sccc1S(=O)(=O)c1ccc(Cl)cc1)c1ccc(Cl)cc1 | > 100

System: SF-539 CNS
Assay: NCI anticancer screen, dose series, 48 h

Row | SMILES | TGI [µM]
27 | C=CC[C@@]1(OC(C)=O)C(=O)C(=O)OC1C1COC(C)(C)O1 (some centres undefined) | 72.9
28 | N#CC1=C(N)OC2=C(CCCc3ccccc32)C1c1ccc([N+](=O)[O-])cc1 (centres undefined) | 35.2
29 | O=C(Nc1sccc1S(=O)(=O)c1ccc(Cl)cc1)c1ccc(Cl)cc1 | > 100

System: CAKI-1 renal
Assay: NCI anticancer screen, dose series, 48 h

Row | SMILES | TGI [µM]
30 | C=CC[C@@]1(OC(C)=O)C(=O)C(=O)OC1C1COC(C)(C)O1 (some centres undefined) | 4.42
31 | N#CC1=C(N)OC2=C(CCCc3ccccc32)C1c1ccc([N+](=O)[O-])cc1 (centres undefined) | > 100
32 | O=C(Nc1sccc1S(=O)(=O)c1ccc(Cl)cc1)c1ccc(Cl)cc1 | > 100

System: OVCAR-3 ovarian
Assay: NCI anticancer screen, dose series, 48 h

Row | SMILES | TGI [µM]
33 | C=CC[C@@]1(OC(C)=O)C(=O)C(=O)OC1C1COC(C)(C)O1 (some centres undefined) | 31.5
34 | N#CC1=C(N)OC2=C(CCCc3ccccc32)C1c1ccc([N+](=O)[O-])cc1 (centres undefined) | 26.7
35 | O=C(Nc1sccc1S(=O)(=O)c1ccc(Cl)cc1)c1ccc(Cl)cc1 | > 100

System: SK-MEL-5 melanoma
Assay: NCI anticancer screen, dose series, 48 h

Row | SMILES | TGI [µM]
36 | C=CC[C@@]1(OC(C)=O)C(=O)C(=O)OC1C1COC(C)(C)O1 (some centres undefined) | 30.4
37 | N#CC1=C(N)OC2=C(CCCc3ccccc32)C1c1ccc([N+](=O)[O-])cc1 (centres undefined) | 28.3
38 | O=C(Nc1sccc1S(=O)(=O)c1ccc(Cl)cc1)c1ccc(Cl)cc1 | > 100

System: U251 CNS
Assay: NCI anticancer screen, dose series, 48 h

Row | SMILES | TGI [µM]
39 | C=CC[C@@]1(OC(C)=O)C(=O)C(=O)OC1C1COC(C)(C)O1 (some centres undefined) | 31.3
40 | N#CC1=C(N)OC2=C(CCCc3ccccc32)C1c1ccc([N+](=O)[O-])cc1 (centres undefined) | 29.8
41 | O=C(Nc1sccc1S(=O)(=O)c1ccc(Cl)cc1)c1ccc(Cl)cc1 | > 100

System: SNB-19 CNS
Assay: NCI anticancer screen, dose series, 48 h

Row | SMILES | TGI [µM]
42 | C=CC[C@@]1(OC(C)=O)C(=O)C(=O)OC1C1COC(C)(C)O1 (some centres undefined) | > 100
43 | N#CC1=C(N)OC2=C(CCCc3ccccc32)C1c1ccc([N+](=O)[O-])cc1 (centres undefined) | 45.7
44 | O=C(Nc1sccc1S(=O)(=O)c1ccc(Cl)cc1)c1ccc(Cl)cc1 | > 100

System: ACHN renal
Assay: NCI anticancer screen, dose series, 48 h

Row | SMILES | TGI [µM]
45 | C=CC[C@@]1(OC(C)=O)C(=O)C(=O)OC1C1COC(C)(C)O1 (some centres undefined) | 30.2
46 | N#CC1=C(N)OC2=C(CCCc3ccccc32)C1c1ccc([N+](=O)[O-])cc1 (centres undefined) | 39.1
47 | O=C(Nc1sccc1S(=O)(=O)c1ccc(Cl)cc1)c1ccc(Cl)cc1 | > 100

System: RPMI-8226 leukemia
Assay: NCI anticancer screen, dose series, 48 h

Row | SMILES | TGI [µM]
48 | C=CC[C@@]1(OC(C)=O)C(=O)C(=O)OC1C1COC(C)(C)O1 (some centres undefined) | 35.5
49 | N#CC1=C(N)OC2=C(CCCc3ccccc32)C1c1ccc([N+](=O)[O-])cc1 (centres undefined) | 13.1
50 | O=C(Nc1sccc1S(=O)(=O)c1ccc(Cl)cc1)c1ccc(Cl)cc1 | > 100

System: NCI-H460 lung
Assay: NCI anticancer screen, dose series, 48 h

Row | SMILES | TGI [µM]
51 | C=CC[C@@]1(OC(C)=O)C(=O)C(=O)OC1C1COC(C)(C)O1 (some centres undefined) | 39.1
52 | N#CC1=C(N)OC2=C(CCCc3ccccc32)C1c1ccc([N+](=O)[O-])cc1 (centres undefined) | 47.7
53 | O=C(Nc1sccc1S(=O)(=O)c1ccc(Cl)cc1)c1ccc(Cl)cc1 | > 100

System: MDA-N
Assay: NCI anticancer screen, dose series, 48 h

Row | SMILES | TGI [µM]
54 | C=CC[C@@]1(OC(C)=O)C(=O)C(=O)OC1C1COC(C)(C)O1 (some centres undefined) | 33.3
55 | N#CC1=C(N)OC2=C(CCCc3ccccc32)C1c1ccc([N+](=O)[O-])cc1 (centres undefined) | 38.2
56 | O=C(Nc1sccc1S(=O)(=O)c1ccc(Cl)cc1)c1ccc(Cl)cc1 | > 100

System: M14 melanoma
Assay: NCI anticancer screen, dose series, 48 h

Row | SMILES | TGI [µM]
57 | C=CC[C@@]1(OC(C)=O)C(=O)C(=O)OC1C1COC(C)(C)O1 (some centres undefined) | 35.1
58 | N#CC1=C(N)OC2=C(CCCc3ccccc32)C1c1ccc([N+](=O)[O-])cc1 (centres undefined) | 28
59 | O=C(Nc1sccc1S(=O)(=O)c1ccc(Cl)cc1)c1ccc(Cl)cc1 | > 100

System: TK-10 renal
Assay: NCI anticancer screen, dose series, 48 h

Row | SMILES | TGI [µM]
60 | C=CC[C@@]1(OC(C)=O)C(=O)C(=O)OC1C1COC(C)(C)O1 (some centres undefined) | 30
61 | N#CC1=C(N)OC2=C(CCCc3ccccc32)C1c1ccc([N+](=O)[O-])cc1 (centres undefined) | 84.9
62 | O=C(Nc1sccc1S(=O)(=O)c1ccc(Cl)cc1)c1ccc(Cl)cc1 | > 100

System: A498 renal
Assay: NCI anticancer screen, dose series, 48 h

Row | SMILES | TGI [µM]
63 | C=CC[C@@]1(OC(C)=O)C(=O)C(=O)OC1C1COC(C)(C)O1 (some centres undefined) | 49
64 | N#CC1=C(N)OC2=C(CCCc3ccccc32)C1c1ccc([N+](=O)[O-])cc1 (centres undefined) | 27.1
65 | O=C(Nc1sccc1S(=O)(=O)c1ccc(Cl)cc1)c1ccc(Cl)cc1 | > 100

System: DU-145 prostate
Assay: NCI anticancer screen, dose series, 48 h

Row | SMILES | TGI [µM]
66 | C=CC[C@@]1(OC(C)=O)C(=O)C(=O)OC1C1COC(C)(C)O1 (some centres undefined) | 53.8
67 | N#CC1=C(N)OC2=C(CCCc3ccccc32)C1c1ccc([N+](=O)[O-])cc1 (centres undefined) | 21.8
68 | O=C(Nc1sccc1S(=O)(=O)c1ccc(Cl)cc1)c1ccc(Cl)cc1 | > 100

System: OVCAR-5 ovarian
Assay: NCI anticancer screen, dose series, 48 h

Row | SMILES | TGI [µM]
69 | C=CC[C@@]1(OC(C)=O)C(=O)C(=O)OC1C1COC(C)(C)O1 (some centres undefined) | 34.5
70 | N#CC1=C(N)OC2=C(CCCc3ccccc32)C1c1ccc([N+](=O)[O-])cc1 (centres undefined) | 50.2
71 | O=C(Nc1sccc1S(=O)(=O)c1ccc(Cl)cc1)c1ccc(Cl)cc1 | > 100

System: NCI-H226 lung
Assay: NCI anticancer screen, dose series, 48 h

Row | SMILES | TGI [µM]
72 | C=CC[C@@]1(OC(C)=O)C(=O)C(=O)OC1C1COC(C)(C)O1 (some centres undefined) | > 100
73 | N#CC1=C(N)OC2=C(CCCc3ccccc32)C1c1ccc([N+](=O)[O-])cc1 (centres undefined) | 52.5
74 | O=C(Nc1sccc1S(=O)(=O)c1ccc(Cl)cc1)c1ccc(Cl)cc1 | > 100

System: HL-60(TB) leukemia
Assay: NCI anticancer screen, dose series, 48 h

Row | SMILES | TGI [µM]
75 | C=CC[C@@]1(OC(C)=O)C(=O)C(=O)OC1C1COC(C)(C)O1 (some centres undefined) | 27.2
76 | N#CC1=C(N)OC2=C(CCCc3ccccc32)C1c1ccc([N+](=O)[O-])cc1 (centres undefined) | 28.2
77 | O=C(Nc1sccc1S(=O)(=O)c1ccc(Cl)cc1)c1ccc(Cl)cc1 | > 100

System: MALME-3M melanoma
Assay: NCI anticancer screen, dose series, 48 h

Row | SMILES | TGI [µM]
78 | C=CC[C@@]1(OC(C)=O)C(=O)C(=O)OC1C1COC(C)(C)O1 (some centres undefined) | 32
79 | N#CC1=C(N)OC2=C(CCCc3ccccc32)C1c1ccc([N+](=O)[O-])cc1 (centres undefined) | 29.9
80 | O=C(Nc1sccc1S(=O)(=O)c1ccc(Cl)cc1)c1ccc(Cl)cc1 | > 100

System: UO-31 renal
Assay: NCI anticancer screen, dose series, 48 h

Row | SMILES | TGI [µM]
81 | C=CC[C@@]1(OC(C)=O)C(=O)C(=O)OC1C1COC(C)(C)O1 (some centres undefined) | 31.4
82 | N#CC1=C(N)OC2=C(CCCc3ccccc32)C1c1ccc([N+](=O)[O-])cc1 (centres undefined) | 24
83 | O=C(Nc1sccc1S(=O)(=O)c1ccc(Cl)cc1)c1ccc(Cl)cc1 | > 100

System: HOP-62 NSCLC
Assay: NCI anticancer screen, dose series, 48 h

Row | SMILES | TGI [µM]
84 | C=CC[C@@]1(OC(C)=O)C(=O)C(=O)OC1C1COC(C)(C)O1 (some centres undefined) | > 100
85 | N#CC1=C(N)OC2=C(CCCc3ccccc32)C1c1ccc([N+](=O)[O-])cc1 (centres undefined) | 35.9
86 | O=C(Nc1sccc1S(=O)(=O)c1ccc(Cl)cc1)c1ccc(Cl)cc1 | > 100

System: MDA-MB-435
Assay: NCI anticancer screen, dose series, 48 h

Row | SMILES | TGI [µM]
87 | C=CC[C@@]1(OC(C)=O)C(=O)C(=O)OC1C1COC(C)(C)O1 (some centres undefined) | 30.9
88 | N#CC1=C(N)OC2=C(CCCc3ccccc32)C1c1ccc([N+](=O)[O-])cc1 (centres undefined) | 39.8
89 | O=C(Nc1sccc1S(=O)(=O)c1ccc(Cl)cc1)c1ccc(Cl)cc1 | > 100
